Results on 27 molecules are retold here after patent US9126973B2, “Multiheteroaryl compounds as inhibitors of H-PGDS and their use for treating prostaglandin D2 mediated diseases” (Cayman Chemical Company, Incorporated, priority 2008, dated 2015).

Series [1] deals with T1, H-PGDS (Homo sapiens (Human), UniProt O60760). The experiment in a line: H-PGDS Fluorescence Polarization Binding Assay (FPBA). As to conditions: H-PGDS-MBP fusion enzyme, fluorescent probe, reduced glutathione 5 mM, 60-90 minutes at room temperature, 96-well format. The method, then: H-PGDS Fluorescence Polarization Binding Assay This assay essentially is available from Cayman Chemical Company as Catalog item #600007. The test data reported for the aforementioned Examples (H-PGDS FPBA IC50) were generated using a 96-well, instead of the 384-well, format. […] Assays were performed in 96-well microtiter plates in 100 μL of total sample volume. Excitation and emission wavelengths appropriate for the employed detection analyte were used. […] Twelve clean microfuge tubes were labeled A1 through A12. […] Dimethyl sulfoxide (50 μL) was added to each of tubes A1 through A11. The HQL-79 control solution was serially diluted by removing 50 μL from tube A12 and placing it in tube A11 with subsequent thorough mixing of the contents of tube A11. Next, 50 μL was removed from tube A11 and was placed into tube A10 with subsequent thorough mixing of the contents of tube A10. This process was repeated for tubes A9 through A2. […] A test compound may be dissolved in DMSO, ethanol, or methanol at several concentrations when the titration endpoint is unknown. […] Assay cocktail (95 μL) was added to each plate well. DMSO (5 μL) from microfuge tube A1 was added to each plate well A1 and B1. Positive control solution (5 μL) from microfuge tube A2 was added to each plate well A2 and B2. Positive control solution (5 μL) from microfuge tube A3 was added to each plate well A3 and B3. This procedure was continued until all the positive control standard dilutions were aliquoted. Test compound solutions (5 μL) were added to the wells. […] The IC50 for a particular test compound was obtained by performing a full concentration titration versus a full concentration titration of positive control. Comparison of a single concentration of a test compound to the maximum binding well provided an assessment of the relative affinity of the test compound for H-PGDS-MBP. The plate was covered and incubated for 60-90 minutes at room temperature. The FP signal is stable for at least two hours. […] The measurements were taken in the fluorescent polarization mode with the z-height set to the middle of the well and the G-factor set to 1.13 on a Tecan Safire 2 reader.
T1 sequence (O60760 whole entry, the tested form may be a part): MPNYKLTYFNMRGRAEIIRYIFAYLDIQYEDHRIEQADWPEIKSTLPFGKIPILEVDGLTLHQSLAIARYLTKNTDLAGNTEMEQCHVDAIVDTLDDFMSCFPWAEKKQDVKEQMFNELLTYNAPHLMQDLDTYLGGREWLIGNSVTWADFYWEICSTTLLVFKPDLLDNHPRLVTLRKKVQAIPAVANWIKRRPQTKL

Series [2] addresses T1, H-PGDS. The experiment in a line: H-PGDS Inhibitor Enzyme Immunoassay (EIA). It counts as biochemical. To be noted: 25 ng H-PGDS, 40 μM PGH2, 1 mM GSH; PGD2 quantified by EIA. The protocol: H-PGDS Inhibitor Enzyme Immunoassay
The assay detects and measures PGD2 generated by H-PGDS. The prostanoid product is quantified via enzyme immunoassay (EIA) using a specific PGD2 antibody.
The assay is carried out by the following steps: • 1. Inhibitor screening is performed in 100 mM Tris-HCl, pH 8.0 containing 1 mM GSH, 1 mM MgCl2, 4% inhibitor/DMSO, 40 μM PGH2 and 25 ng of PGDS in a total volume of 125 μL. • 2. A reaction mixture containing 100 mM Tris-HCl, pH 8.0, 1 mM GSH, 1 mM MgCl2, 25 ng H-PGDS and 4% inhibitor or DMSO (uninhibited reaction) is preincubated at 25° C. for 10 minutes. • 3. Reactions are initiated using 5 μL of PGH2 and quenched every 15 seconds for one minute. Reactions are quenched by taking 10 μL of reaction mixture and adding to 490 μL of 100 mM phosphate buffer containing 0.1% BSA, 400 mM NaCl, 1 mM EDTA, 20 mM FeCl2, 10% 1N HCl, and 0.01% azide to prevent the non-enzymatic formation of PGD2 from PGH2. The FeCl2 serves the purpose of reducing PGH2 to 12-HHT. (Quench buffer is kept on ice at all times). • 4. Quenched samples (5 μL) are further diluted 100 fold in 495 μL of 100 mM phosphate buffer containing 0.1% BSA, 400 mM NaCl, 1 mM EDTA, and 0.01% azide for the PGD2 EIA assay. (Dilution buffers are kept on ice at all times).
The final 5000 fold diluted samples are analyzed following the protocol outlined in Cayman Chemical's commercially available PGD2 EIA kit (Cat. #512021). 50 μL of diluted sample is analyzed at least in duplicate in the EIA assay and the amount of PGD2 formed is quantified using a standard curve.

By IC50 is commonly meant the concentration that gives 50% inhibition. Lower therefore signals greater potency. The melting point is the temperature of the solid-liquid transition. `c1ccc(-c2ccc(-c3cnc(-c4ccccc4)[nH]3)cn2)cc1` [Example 2, 2-phenyl-5-(2-phenyl-1H-imidazol-5-yl)pyridine] displayed a melting point of 206 °C. In addition, the IC50 at H-PGDS [1] stood at 480 nM. The IC50 against H-PGDS [2] is 97 nM.
The corresponding values for `c1ccc(Cc2ncc(-c3cnc(-c4ccccc4)nc3)[nH]2)cc1` [Example 14, 5-(2-benzyl-1H-imidazol-5-yl)-2-phenylpyrimidine] are 235 °C, 625 nM and 59 nM.
As for `Cc1nc(-c2ccccc2)[nH]c1-c1cnc(-c2ccccc2)nc1` [Example 4, 5-(4-methyl-2-phenyl-1H-imidazol-5-yl)-2-phenylpyrimidine], the melting point was determined as 138 °C. Also, the IC50 on H-PGDS [1] amounted to 450 nM. The molecule also had an IC50 on H-PGDS [2] of 82 nM.
In the case of `CCOC(=O)c1cc(-c2cnc(Oc3ccccc3)nc2)[nH]n1` [Example 54, ethyl 5-(2-phenoxypyrimidin-5-yl)-1H-pyrazole-3-carboxylate], the values for the IC50 at H-PGDS [1] and against H-PGDS [2] were 1300 nM and 130 nM, respectively.
Consider `c1ccc(-c2ncc(-c3cnc(-c4ccccc4)[nH]3)cn2)cc1` [Example 1, 2-phenyl-5-(2-phenyl-1H-imidazol-5-yl)pyrimidine], for which the melting point was found to be 253 °C. Further, the IC50 on H-PGDS [1] worked out at 250 nM. Also, 12 nM corresponded to half-maximal inhibition at H-PGDS [2] (IC50).
`Fc1cccc(-c2ncc(-c3cnc(-c4ccccc4)nc3)[nH]2)c1` [Example 8, 5-(2-(3-fluorophenyl)-1H-imidazol-5-yl)-2-phenylpyrimidine]: the melting point came to 221 °C. This molecule registered an IC50 on H-PGDS [1] of 188 nM. This molecule returned an IC50 at H-PGDS [2] of 4 nM.
For `c1ccc(-c2ncc(-c3csc(-c4cccnc4)n3)cn2)cc1` [Example 59, 4-(2-phenylpyrimidin-5-yl)-2-(pyridin-3-yl)thiazole] the same measures were 319 °C, 1000 nM and 150 nM.
The corresponding values for `c1ccc(Oc2ncc(-c3cnc(-c4cccnc4)[nH]3)cn2)cc1` [Example 40, 2-phenoxy-5-(2-(pyridin-3-yl)-1H-imidazol-4-yl)pyrimidine] are 236 °C, 625 nM and 370 nM.
Turning to `c1ccc(-c2ncc(-c3nnn[nH]3)cn2)cc1` [Example 43, 2-phenyl-5-(1H-tetrazol-5-yl)pyrimidine], the melting point was 237 °C. On H-PGDS [1], the IC50 was 2500 nM.
`Fc1cccc(-c2nc(-c3cnc(-c4ccccc4)nc3)cs2)c1` [Example 58, 2-(3-fluorophenyl)-4-(2-phenylpyrimidin-5-yl)thiazole] registered a melting point of 228 °C. The IC50 at H-PGDS [1] is > 20000 nM.
As for `c1ccc(-c2ncc(-c3nnc(-c4ccccc4)[nH]3)cn2)cc1` [Example 49, 2-phenyl-5-(5-phenyl-4H-1,2,4-triazol-3-yl)pyrimidine], the melting point lay within 280 to 282 °C. On H-PGDS [1], this molecule had an IC50 of 1000 nM. The IC50 against H-PGDS [2] was 84 nM.
The molecule `c1ccc(Cc2nc(-c3cnc(-c4ccccc4)nc3)cs2)cc1` [Example 60, 2-benzyl-4-(2-phenylpyrimidin-5-yl)thiazole] displayed a melting point of 170 °C. Moreover, on H-PGDS [1], the IC50 was > 20000 nM.
For `c1ccc(-c2ncc(-c3cnc(C4CCCNC4)[nH]3)cn2)cc1` (racemic) [Example 22, (±)-2-phenyl-5-(2-(piperidin-3-yl)-1H-imidazol-5-yl)pyrimidine] the same measures were 140 °C and 1250 nM.
In turn, `Fc1cccc(-c2ncc(-c3cnc(-c4ccccc4)[nH]3)cn2)c1` [Example 6, 2-(3-fluorophenyl)-5-(2-phenyl-1H-imidazol-5-yl)pyrimidine] had a melting point of 240 °C. The IC50 at H-PGDS [1] came out at 280 nM. The molecule also had an IC50 against H-PGDS [2] of 47 nM.
The molecule `c1ccc(CN2CCCC(c3ncc(-c4cnc(-c5ccccc5)nc4)[nH]3)C2)cc1` (racemic) [Example 23, (±)-5-(2-(1-benzylpiperidin-3-yl)-1H-imidazol-5-yl)-2-phenylpyrimidine] came in with a melting point of 179 °C. The molecule also came in with an IC50 at H-PGDS [1] of 600 nM.
For `c1ccc(Cn2cncc2-c2cnc(-c3ccccc3)nc2)cc1` [Example 33, 5-(1-benzyl-1H-imidazol-5-yl)-2-phenylpyrimidine] the same measures were 140 °C and 2000 nM.
Regarding `Cl.c1ccc(-c2ncc(-c3cc[nH]n3)cn2)cc1` [Example 41, 2-phenyl-5-(1H-pyrazol-3-yl)pyrimidine hydrochloride], the melting point is 264 to 273 °C. This molecule had an IC50 on H-PGDS [1] of 2400 nM.
For `c1ccc(-c2ncc(-c3cnc(-c4cccnc4)[nH]3)cn2)cc1` [Example 10, 2-phenyl-5-(2-(pyridin-3-yl)-1H-imidazol-5-yl)pyrimidine], the melting point worked out at 308 °C. In addition, the IC50 on H-PGDS [1] is 79 nM. This molecule also came in with an IC50 against H-PGDS [2] of 21 nM.
`c1ccc(-c2ncc(-c3cnc(CCc4cccnc4)[nH]3)cn2)cc1` [Example 16, 2-phenyl-5-(2-(2-(pyridin-3-yl)ethyl)-1H-imidazol-5-yl)pyrimidine] yielded a melting point of 113 °C. For the same molecule, at H-PGDS [1], the IC50 is 300 nM.
In turn, `c1ccc(CN2CCC(c3ncc(-c4cnc(-c5ccccc5)nc4)[nH]3)CC2)cc1` [Example 19, 5-(2-(1-benzylpiperidin-4-yl)-1H-imidazol-5-yl)-2-phenylpyrimidine] showed a melting point of 223 °C. This molecule showed an IC50 at H-PGDS [1] of 80 nM. This molecule gave an IC50 against H-PGDS [2] of 6 nM.
For `C(=C\c1ncc(-c2cnc(-c3ccccc3)nc2)[nH]1)/c1cccnc1` [Example 15, (E)-2-phenyl-5-(2-(2-(pyridin-3-yl)vinyl)-1H-imidazol-5-yl)pyrimidine] the same measures were 258 °C, 150 nM and 23 nM.
Take `O=C(O)C(F)(F)F.c1ccc(-c2ncc(-c3csc(C4CCNCC4)n3)cn2)cc1` [Example 61, 4-(4-(2-phenylpyrimidin-5-yl)thiazol-2-yl)piperidinium 2,2,2-trifluoroacetate]: the melting point was found to be 290 °C. For the same molecule, at H-PGDS [1], the IC50 turned out to be 5000 nM.
`CN1CCN(C(=O)c2cc(-c3cnc(Oc4ccccc4)nc3)[nH]n2)CC1` [Example 57, (4-methylpiperazin-1-yl)(5-(2-phenoxypyrimidin-5-yl)-1H-pyrazol-3-yl)methanone]: the IC50 on H-PGDS [1] stood at 650 nM; on H-PGDS [2] it was 420 nM.
On to `c1ccc(Cc2ncc(-c3cnc(Oc4ccccc4)nc3)[nH]2)cc1` [Example 39, 5-(2-benzyl-1H-imidazol-4-yl)-2-phenoxypyrimidine], for which the melting point turned out to be 60 °C. Besides, the IC50 on H-PGDS [1] turned out to be 10000 nM.
The corresponding values for `c1cncc(-c2ncc(-c3cnc(-c4cccnc4)[nH]3)cn2)c1` [Example 12, 2-(pyridin-3-yl)-5-(2-(pyridin-3-yl)-1H-imidazol-5-yl)pyrimidine] are 299 °C and 1300 nM.
For `Cn1cncc1-c1cnc(-c2ccccc2)nc1` [Example 32, 5-(1-methyl-1H-imidazol-5-yl)-2-phenylpyrimidine] the same measures were 144 °C and 7600 nM.
As for `c1ccc(-c2ncc(-c3cnc(-c4ccccc4)o3)cn2)cc1` [Example 46, 2-phenyl-5-(2-phenylpyrimidin-5-yl)oxazole], the melting point fell in the range of 228 to 231 °C. The molecule further showed an IC50 at H-PGDS [1] of 125000 nM.
